Experimental data: the supplement of paper PMC10307832

Compound: CN1CCC(CC1)OC2=CC(=C(C=C2)NC3=NC=C4C(=N3)N(C(=O)N4C)C5CCCC5)OC [AZ3146] + Cc1cc(Nc2cc(N3CCN(C)CC3)nc(Sc3ccc(NC(=O)C4CC4)cc3)n2)n[nH]1 [Tozasertib] (partner 0.1 µM)
Assay: relative viability (nuclei count vs DMSO), 5 days (fraction); higher = more cells survive
Settings: first compound 0.08 µM
Procedure, shortened: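 Values are medians from duplicate plates. Each reflects relative viability, defined as the nuclei count of treated wells over that of vehicle wells. Lung cancer cell lines in 1536-well plates were pin-tool dosed one day after seeding with one drug alone or with a fixed anchor-drug dose plus five library-drug doses (not always all listed) in √10 steps, then fixed, stained and imaged at 4× after 5 days.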

Cell Line	relative viability
NCI-H522	0.533
NCI-H1623	0.46
PC-14	0.33
NCI-H1666	0.473
EKVX	0.314
NCI-H1755	0.519
NCI-H2023	0.331
HCC-78	0.315
SK-LU-1	0.354
PC-3 [JPC-3]	0.829
LOU-NH91	0.453
NCI-H647	0.236
NCI-H23	0.315
NCI-H2126	0.71
ChaGo-K-1	0.192
HCC-44	0.502

Cell Line	relative viability
NCI-H1734	0.225
NCI-H650	0.491
LK-2	0.175
NCI-H2228	0.224
NCI-H2342	0.329
NCI-H1944	0.219
HARA	0.115
COR-L23	0.193
LCLC-103H	0.418
LXF-289	0.194
NCI-H358	0.0884
NCI-H322M	0.455
LC-2-ad	0.323
HCC-827	0.45
SW 900	0.466
HCC-366	0.0936

Same assay, conditions: first compound 0.253 µM

Cell Line	relative viability
NCI-H522	0.512
NCI-H1623	0.404
PC-14	0.589
NCI-H1666	0.527
EKVX	0.399
NCI-H1755	0.696
NCI-H2023	0.328
HCC-78	0.449
SK-LU-1	0.293
PC-3 [JPC-3]	0.905
LOU-NH91	0.668
NCI-H647	0.358
NCI-H23	0.338
EPLC-272H	0.237
NCI-H2126	0.803
ChaGo-K-1	0.229
HCC-44	0.944

Cell Line	relative viability
NCI-H1734	0.264
NCI-H650	0.769
LK-2	0.186
NCI-H2228	0.385
NCI-H2342	0.654
NCI-H1944	0.241
HARA	0.15
COR-L23	0.222
LCLC-103H	0.523
LXF-289	0.189
NCI-H358	0.107
NCI-H322M	0.466
LC-2-ad	0.44
HCC-827	0.454
SW 900	0.625
NCI-H1648	0.303
HCC-366	0.1

Same assay, conditions: first compound 0.8 µM

Cell Line	relative viability
NCI-H522	0.582
NCI-H1623	0.461
PC-14	0.543
NCI-H1666	0.442
EKVX	0.364
NCI-H1755	0.678
NCI-H2023	0.171
HCC-78	0.347
SK-LU-1	0.279
PC-3 [JPC-3]	0.855
LOU-NH91	0.664
NCI-H647	0.143
NCI-H23	0.362
EPLC-272H	0.184
NCI-H2126	0.722
ChaGo-K-1	0.22
HCC-44	0.904

Cell Line	relative viability
NCI-H1734	0.279
NCI-H650	0.75
LK-2	0.188
NCI-H2228	0.292
NCI-H2342	0.518
NCI-H1944	0.246
HARA	0.0956
COR-L23	0.161
LCLC-103H	0.498
LXF-289	0.158
NCI-H358	0.105
NCI-H322M	0.439
LC-2-ad	0.424
HCC-827	0.414
SW 900	0.399
NCI-H1648	0.54
HCC-366	0.0606

Same assay, conditions: first compound 2.53 µM

Cell Line	relative viability
NCI-H522	0.455
NCI-H1623	0.481
PC-14	0.386
NCI-H1666	0.463
EKVX	0.378
NCI-H1755	0.766
NCI-H2023	0.157
HCC-78	0.404
SK-LU-1	0.3
PC-3 [JPC-3]	0.877
LOU-NH91	0.525
NCI-H647	0.191
NCI-H23	0.301
EPLC-272H	0.217
NCI-H2126	0.378
ChaGo-K-1	0.235
HCC-44	0.372

Cell Line	relative viability
NCI-H1734	0.275
NCI-H650	0.794
LK-2	0.157
NCI-H2228	0.198
NCI-H2342	0.505
NCI-H1944	0.235
HARA	0.0781
COR-L23	0.144
LCLC-103H	0.45
LXF-289	0.216
NCI-H358	0.123
NCI-H322M	0.495
LC-2-ad	0.365
HCC-827	0.427
SW 900	0.326
NCI-H1648	0.58
HCC-366	0.044

Same assay, conditions: first compound 8 µM

Cell Line	relative viability
NCI-H522	0.587
NCI-H1623	0.4
PC-14	0.0776
NCI-H1666	0.338
EKVX	0.232
NCI-H1755	0.588
NCI-H2023	0.147
HCC-78	0.44
SK-LU-1	0.216
PC-3 [JPC-3]	0.715
LOU-NH91	0.365
NCI-H647	0.157
NCI-H23	0.338
EPLC-272H	0.138
NCI-H2126	0.234
ChaGo-K-1	0.206
HCC-44	0.315
NCI-H1734	0.29
NCI-H650	0.509
LK-2	0.196
NCI-H2228	0.18
NCI-H2342	0.353
NCI-H1944	0.224
HARA	0.0801
COR-L23	0.173
LCLC-103H	0.409
LXF-289	0.189
